# Biological target: T1, ALPL (Mus musculus, UniProt P09242)
# T1 construct: from tissue; host or cells: brain sections (cerebral cortex vasculature) of aged C57BL/6 mice dosed in vivo
# T1 sequence (P09242 18-501): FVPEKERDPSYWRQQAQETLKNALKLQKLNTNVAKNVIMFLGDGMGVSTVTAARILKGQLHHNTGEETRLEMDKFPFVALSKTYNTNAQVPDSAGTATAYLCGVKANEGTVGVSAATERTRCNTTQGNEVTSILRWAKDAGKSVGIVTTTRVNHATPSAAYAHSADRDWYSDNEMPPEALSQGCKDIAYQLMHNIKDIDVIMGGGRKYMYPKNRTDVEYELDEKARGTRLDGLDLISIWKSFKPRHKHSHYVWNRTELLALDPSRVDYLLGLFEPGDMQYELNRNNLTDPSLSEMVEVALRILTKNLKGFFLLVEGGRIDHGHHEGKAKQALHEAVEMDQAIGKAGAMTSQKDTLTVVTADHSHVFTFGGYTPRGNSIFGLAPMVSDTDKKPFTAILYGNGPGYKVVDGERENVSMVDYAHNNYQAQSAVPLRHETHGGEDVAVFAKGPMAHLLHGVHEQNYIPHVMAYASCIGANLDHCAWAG
# Assay: ALPL activity in the cerebral cortex vasculature (Red Alkaline Phosphatase Substrate Kit)
# Type: in vivo
# Conditions: aged (22 m.o.) mice, 8.75 mg/kg intraperitoneally twice per day for three days, vs vehicle
# Text: FIG. 12A is a dot plot representation of cell-surface, druggable gene candidates on brain endothelial cells. Genes were plotted by their degree of blood-brain barrier specificity (Daneman et al., PLoS One (2010). doi:10.1371/journal.pone.0013741) and correlation with plasma uptake. Genes were colored by their upregulation (brown) or downregulation (green) with age. FIG. 12B includes representative images of calcified nodules (Alizarin red staining) detected in aged (23 m.o.—bottom panel) but not young (3 m.o.—top panel) mice, recapitulating nodules seen in pericyte-deficient Pdgfbret/ret mice (Keller et al., Nat. Genet. (2013). doi:10.1038/ng.2723) (representative image of n=5 mice per age). […] FIG. 12E is a graph illustrating quantification of ALPL expression in the cerebral cortex vasculature of young (3 m.o.) and aged (23 m.o.) mice (n=7, two-sided t-test; mean+/−s.e.m.). […] Uptake in the brain endothelium and parenchyma was assessed by flow cytometry and confocal microscopy of the cortex and hippocampus. […] FIG. 12H is a graph illustrating quantification of ALPL activity in the cerebral cortex vasculature of aged (22 m.o.) mice treated with ALPL inhibitor (anti-ALPL) or vehicle and in young (3 m.o.) mice (n=6-9, one-way ANOVA with Tukey's multiple comparisons correction; mean+/−s.e.m.). […]
smiles,measurement,value
"COc1ccc(OC)c(S(=O)(=O)Nc2cnc3ccccc3c2)c1 [ALPL inhibitor, 2,5-Dimethoxy-N-(quinolin-3-yl)benzenesulfonamide]",ALPL activity in the aged brain vasculature,decreased
